Test results taken from the SangsterLogP compilation.

Assay: method code G-GLC, from DOI: 10.1021/je00030a025

| logP | Compound |
| --- | --- |
| 5.18 | CCCCCCCC |
| 3.99 | C=CCCCCC |
| 2.73 | C#CCCCC |
| 2.57 | CCCCCCCO |
| 0.99 | CCC(=O)CC |
| 5.15 | C=CCCCCCCC |
| 4.7 | CCCCCCCI |
| 4.15 | CCCCCCCCl |

| Compound | logP |
| --- | --- |
| CCCCCCCCBr | 4.89 |
| ClCCCBr | 2.18 |
| Fc1ccccc1CCl | 2.67 |
| CCCCCCBr | 3.8 |

Assay: method code G-HPLC, from DOI: 10.1021/je00030a025

| logP | Compound |
| --- | --- |
| 4.9 | CCCCCc1ccccc1 |
| 2.53 | C=CCCBr |
| 1.11 | CC(=O)OCCBr |
| 3.18 | CCCCCCCC(C)=O |
| 2.76 | CCCCCCC(C)=O |

| Compound | logP |
| --- | --- |
| O=Cc1ccco1 | 0.52 |
| Fc1cccc(CCl)c1 | 2.77 |
